SMILES strings stand for the structures. pIC50: −log10 of the molar value.

The assay addresses T1, USP25 (USP25-His6, Boston Biochem E-546) (Homo sapiens, UniProt Q9UHP3).
T1 construct: His6; purchased Boston Biochem E-546
T1 sequence (Q9UHP3 1-1055): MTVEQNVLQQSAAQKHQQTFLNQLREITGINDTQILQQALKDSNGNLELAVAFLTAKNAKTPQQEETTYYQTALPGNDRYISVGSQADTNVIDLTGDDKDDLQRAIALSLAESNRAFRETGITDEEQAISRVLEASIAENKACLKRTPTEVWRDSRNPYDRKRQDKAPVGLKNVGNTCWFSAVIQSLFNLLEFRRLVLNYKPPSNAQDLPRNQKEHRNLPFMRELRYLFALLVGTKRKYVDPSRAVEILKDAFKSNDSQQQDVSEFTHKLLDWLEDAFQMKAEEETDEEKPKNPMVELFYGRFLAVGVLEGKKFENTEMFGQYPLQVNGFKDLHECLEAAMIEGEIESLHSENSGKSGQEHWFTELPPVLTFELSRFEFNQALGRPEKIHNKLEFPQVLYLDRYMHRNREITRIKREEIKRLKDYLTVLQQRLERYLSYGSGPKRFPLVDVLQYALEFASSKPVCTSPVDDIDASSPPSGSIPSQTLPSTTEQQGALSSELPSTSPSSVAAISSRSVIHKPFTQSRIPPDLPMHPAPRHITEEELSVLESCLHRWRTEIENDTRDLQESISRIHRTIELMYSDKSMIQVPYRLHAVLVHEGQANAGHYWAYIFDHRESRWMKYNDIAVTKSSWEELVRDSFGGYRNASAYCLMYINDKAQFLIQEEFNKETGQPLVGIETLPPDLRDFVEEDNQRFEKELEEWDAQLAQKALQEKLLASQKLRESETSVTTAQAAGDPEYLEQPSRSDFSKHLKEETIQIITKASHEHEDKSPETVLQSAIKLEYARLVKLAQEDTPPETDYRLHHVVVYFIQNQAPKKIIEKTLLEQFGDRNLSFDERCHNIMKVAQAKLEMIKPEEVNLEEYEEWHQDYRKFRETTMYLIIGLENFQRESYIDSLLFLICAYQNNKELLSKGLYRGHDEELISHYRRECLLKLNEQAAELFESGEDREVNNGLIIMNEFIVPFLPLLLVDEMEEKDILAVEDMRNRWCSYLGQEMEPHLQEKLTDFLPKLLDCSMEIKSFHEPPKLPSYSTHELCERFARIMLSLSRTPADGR
Nature of the assay: Ubiquitin-Rhodamine 110 Assay for USP25 Activity, Example A-2. Particulars: Ubiquitin-Rhodamine 110 assay, Example A-2; read-out: USP25 A-2 IC50 range. It counts as biochemical. In a few lines:
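Cleavage of ubiquitin-rhodamine 110 (25 nM, well below Km) by His-tagged USP25 at 75 pM is measured fluorimetrically after 45 min at room temperature and acid quench. Inhibitors are preincubated with enzyme for 30 minutes. IC50 values come from four-parameter logistic curve fitting.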
As usually defined, the pIC50 is the IC50 on a negative log10 scale, so that one unit is a factor of ten. In the case of `Cc1ccc2c(N)c(C(=O)N[C@H]3CCc4nc(N5CCNCC5)c(F)cc4C3)sc2n1` (single isomer, unassigned) [Example 30-1], the pIC50 was 5.70 to 6.70. In the case of `Cc1cnc2c(N)c(C(=O)N[C@H]3COc4c(C#N)c(N5CC6CC(C5)N6)cc(F)c4C3)sc2n1` [Example 77, N-((3R)-7-(3,6-diazabicyclo[3.1.1]heptan-3-yl)-8-cyano-5-fluorochroman-3-yl)-7-amino-3-methylthieno[2,3-b]pyrazine-6-carboxamide] it was 5.70 to 6.70; in that of `Cc1ccc2c(N)c(C(=O)N[C@H]3CCc4nc(N5CC6CC(C5)N6)ccc4C3)sc2n1` [Example 23-10, 3-amino-N-[(6S)-2-{3,6-diazabicyclo[3.1.1]heptan-3-yl}-5,6,7,8-tetrahydroquinolin-6-yl]-6-methylthieno[2,3-b]pyridine-2-carboxamide], 5.70 to 6.70. In the case of `Cc1ccc2c(N)c(C(=O)N[C@H]3COc4cc([C@H]5CCNCC5(F)F)ccc4C3)sc2n1` [Example 69, 3-amino-N-((R)-7-((R)-3,3-difluoropiperidin-4-yl)chroman-3-yl)-6-methylthieno[2,3-b]pyridine-2-carboxamide] it was 6.70 to 7.30; in that of `Cc1cnc2c(N)c(C(=O)N[C@H]3CCc4nc(N5CC6CCC(C5)N6)ccc4C3)sc2n1` [Example 23-13, 7-amino-N-{(6S)-2-{3,8-diazabicyclo[3.2.1]octan-3-yl}-5,6,7,8-tetrahydroquinolin-6-yl]-3-methylthieno[2,3-b]pyrazine-6-carboxamide], 5.70 to 6.70; in that of `O=C(N[C@H]1COc2cc(N3CC4CCC(C3)N4)ccc2C1)c1cnc2c(c1)CCCO2` [Example 51, N-((3R)-7-(3,8-diazabicyclo[3.2.1]octan-3-yl)chroman-3-yl)-3,4-dihydro-2H-pyrano[2,3-b]pyridine-6-carboxamide], less than 5.70. With `CO[C@@H]1CN(c2cc3c(cc2F)C[C@@H](NC(=O)c2sc4nc(C)ccc4c2N)CO3)C[C@H]1N` [Example 93, 3-amino-N-[(3R)-7-[(3R,4R)-3-amino-4-methoxypyrrolidin-1-yl]-6-fluoro-3,4-dihydro-2H-1-benzopyran-3-yl]-6-methylthieno[2,3-b]pyridine-2-carboxamide], the pIC50 was 5.70 to 6.70.

`Cc1ccc2c(N)c(C(=O)N[C@H]3COc4cc(C5(C#N)CCS(=O)(=O)CC5)ccc4C3)sc2n1` [Example 34, 3-amino-N-[(3R)-7-(4-cyano-1,1-dioxo-1λ6-thian-4-yl)-3,4-dihydro-2H-1-benzopyran-3-yl]-6-methylthieno[2,3-b]pyridine-2-carboxamide]: the pIC50 is 7.30 to 9.00. As for `Cc1ccc2c(N)c(C(=O)N[C@H]3CCc4nc(N5CCNCC5)ccc4C3)sc2n1` (single isomer, unassigned) [Example 23-7], the figure is 5.70 to 6.70.

For the compound `Cc1nc2sc(C(=O)N[C@H]3COc4cc(N5CCNCC5)c(F)c(F)c4C3)c(N)c2s1` [Example 66, (R)-6-amino-N-(5,6-difluoro-7-(piperazin-1-yl)chroman-3-yl)-2-methylthieno[2,3-d]thiazole-5-carboxamide], the pIC50 is 5.70 to 6.70.

Consider `CO[C@@H]1CN(c2cc(F)c3c(c2F)OC[C@H](NC(=O)c2sc4nc(C)ccc4c2N)C3)C[C@H]1N` [Example 86], for which the pIC50 was 5.70 to 6.70. `Cc1ccc2c(N)c(C(=O)N[C@H]3CCc4nc(N5CCNCC5)cc(F)c4C3)sc2n1` [Example 23-17, 3-amino-N-[(6S)-4-fluoro-2-(piperazin-1-yl)-5,6,7,8-tetrahydroquinolin-6-yl]-6-methylthieno[2,3-b]pyridine-2-carboxamide]: the pIC50 was 5.70 to 6.70. As for `O=C(N[C@H]1COc2cc(N3CCNCC3)ccc2C1)c1ccc(NCc2ccccc2)nc1` [Example 52, (R)-6-(benzylamino)-N-(7-(piperazin-1-yl)chroman-3-yl)nicotinamide], the figure is 5.70 to 6.70; as for `O=C(N[C@H]1COc2cc(N3CCNCC3)ccc2C1)c1cnc2c(c1)CC[C@@H]2O` [Example 58, (S)-7-hydroxy-N-((R )-7-(piperazin-1-yl)chroman-3-yl)-6,7-dihydro-5H-cyclopenta[b]pyridine-3-carboxamide], less than 5.70; as for `Cc1cnc2c(N)c(C(=O)N[C@H]3COc4cc(N5CCNCC5)ncc4C3)sc2n1` [Example 71, (R)-7-amino-3-methyl-N-(7-(piperazin-1-yl)-3,4-dihydro-2H-pyrano[3,2-c]pyridin-3-yl)thieno[2,3-b]pyrazine-6-carboxamide], 5.70 to 6.70. For the compound `Cc1ccc2c(N)c(C(=O)N[C@H]3Cc4ccc(N5CCNCC5)nc4C4(CC4)C3)sc2n1` (single isomer, unassigned) [Example 31-4, 3-amino-6-methyl-N-[(6′R)-2′-(piperazin-1-yl)-6′,7′-dihydro-5′H-spiro[cyclopropane-1,8′-quinoline]-6′-yl]thieno[2,3-b]pyridine-2-carboxamide], the pIC50 is 5.70 to 6.70.

In the case of `Cc1ccc2c(N)c(C(=O)N[C@H]3CCc4nc(N5CCN[C@H](C)C5)ccc4C3)sc2n1` (single isomer, unassigned) [Example 23-16], the negative-log IC50 (pIC50) is 5.70 to 6.70.

As for `Cc1ccc2c(N)c(C(=O)N[C@H]3CCc4nc(N5CC6CCC(C5)N6)cc(F)c4C3)sc2n1` [Example 23-18, N-((6S)-2-(3,8-diazabicyclo[3.2.1]octan-3-yl)-4-fluoro-5,6,7,8-tetrahydroquinolin-6-yl)-3-amino-6-methylthieno[2,3-b]pyridine-2-carboxamide], the pIC50 was 5.70 to 6.70. In the case of `Cc1ccc2c(N)c(C(=O)N[C@H]3CCc4nc(N5CC6CCC(C5)N6)ccc4C3)sc2n1` [Example 23-12, 3-amino-N-[(6S)-2-{3,8-diazabicyclo[3.2.1]octan-3-yl}-5,6,7,8-tetrahydroquinolin-6-yl]-6-methylthieno[2,3-b]pyridine-2-carboxamide] it was 5.70 to 6.70; in that of `CO[C@H]1CN(c2cc(F)c3c(c2F)OC[C@H](NC(=O)c2sc4nc(C)ccc4c2N)C3)C[C@@H]1N` [Example 87, 3-amino-N-((R)-7-((3S,4S)-3-amino-4-methoxypyrrolidin-1-yl)-5,8-difluorochroman-3-yl)-6-methylthieno[2,3-b]pyridine-2-carboxamide], 5.70 to 6.70; in that of `Cc1ccc2c(N)c(C(=O)N[C@H]3COc4cc([C@@H]5CCNC[C@@H]5O)ccc4C3)sc2n1` [Example 63, 3-amino-N-((R)-7-((3R,4S)-3-hydroxypiperidin-4-yl)chroman-3-yl)-6-methylthieno[2,3-b]pyridine-2-carboxamide], 6.70 to 7.30. As for `Cc1nc2sc(C(=O)N[C@H]3COc4cc(N5CCNCC5)ncc4C3)c(N)c2cc1F` [Example 72, (R)-3-amino-5-fluoro-6-methyl-N-(7-(piperazin-1-yl)-3,4-dihydro-2H-pyrano[3,2-c]pyridin-3-yl)thieno[2,3-b]pyridine-2-carboxamide], the figure is 5.70 to 6.70; as for `Cc1ccc2c(N)c(C(=O)N[C@H]3COc4cc(N5CCNCC5)c(F)c(F)c4C3)sc2n1` [Example 61, (R)-3-amino-N-(5,6-difluoro-7-(piperazin-1-yl)chroman-3-yl)-6-methylthieno[2,3-b]pyridine-2-carboxamide], 6.70 to 7.30; as for `Cc1ccc2c(N)c(C(=O)N[C@H]3COc4cc(N5C[C@H]6CNC[C@@H]6C5)ccc4C3)sc2n1` [Example 43, 3-amino-N-((R)-7-((3aR,6aR)-hexahydropyrrolo[3,4-c]pyrrol-2(1H)-yl)chroman-3-yl)-6-methylthieno[2,3-b]pyridine-2-carboxamide], less than 5.70. In the case of `O=C(N[C@H]1COc2c(F)c(N3CC4CCC(C3)N4)cc(F)c2C1)c1cnc2c(c1)[C@H]1C[C@H]1CN2` [Example 90, (1aR,7bS)-N-((3R)-7-(3,8-diazabicyclo[3.2.1]octan-3-yl)-5,8-difluorochroman-3-yl)-1a,2,3,7b-tetrahydro-1H-cyclopropa[c][1,8]naphthyridine-6-carboxamide] it was 5.70 to 6.70. `Cc1nc2sc(C(=O)N[C@H]3CCc4nc(N5CCNCC5)ccc4C3)c(N)c2s1` [Example 23-9]: the pIC50 is less than 5.70. In the case of `Cc1ccc2c(N)c(C(=O)N[C@H]3COc4cc(N5C[C@H]6CCNC[C@H]65)ccc4C3)sc2n1` (single isomer, unassigned) [Example 33-4] it was 5.70 to 6.70.

Source of the values: US11524966B1 (Valo Early Discovery, Inc., priority 2017, dated 2022).
